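Protocol summary: plate cells (96-well), add compound at 5 concentrations, incubate 48 h, interpolate endpoints linearly. At the GI50, growth is halved.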 Calls of active or inactive are those of the source. Rule as the data show it: active = GI50 up to about 1.1 µM and inactive = higher.
Tests used:
Experiment in all cases: inhibition of tumour cell growth, NCI panel, 48 h
CAKI-1 = test system: CAKI-1
CCRF-CEM = test system: CCRF-CEM
COLO 205 = test system: COLO 205
EKVX = test system: EKVX
HCT-116 = test system: HCT-116
HOP-92 = test system: HOP-92
HT-29 = test system: HT-29
MCF7 = test system: MCF7
MOLT-4 = test system: MOLT-4
NCI-H226 = test system: NCI-H226
NCI-H522 = test system: NCI-H522
NCI/ADR-RES = test system: NCI/ADR-RES
RPMI-8226 = test system: RPMI-8226
RXF 393 = test system: RXF 393
SF-268 = test system: SF-268
SF-539 = test system: SF-539
SK-MEL-28 = test system: SK-MEL-28
SK-MEL-2 = test system: SK-MEL-2
SR = test system: SR
SNB-78 = test system: SNB-78

SMILES	GI50 (CAKI-1)	GI50 (CCRF-CEM)	GI50 (COLO 205)	GI50 (EKVX)	GI50 (HCT-116)	GI50 (HOP-92)	GI50 (HT-29)	GI50 (MCF7)	GI50 (MOLT-4)	GI50 (NCI-H226)	GI50 (NCI-H522)	GI50 (NCI/ADR-RES)	GI50 (RPMI-8226)	GI50 (RXF 393)	GI50 (SF-268)	GI50 (SF-539)	GI50 (SK-MEL-28)	GI50 (SK-MEL-2)	GI50 (SR)	GI50 (SNB-78)
O=C1NCN(c2ccccc2)C12CCN(CCCN1CCN(CCOC(c3ccc(F)cc3)c3ccc(F)cc3)CC1)CC2	2.12 µM (inactive)	3.31 µM (inactive)	1.52 µM (inactive)	2.88 µM (inactive)	1.7 µM (inactive)	1.64 µM (inactive)	1.26 µM (inactive)	1.92 µM (inactive)	3.15 µM (inactive)	1.86 µM (inactive)	1.9 µM (inactive)	11 µM (inactive)	2.04 µM (inactive)	1.04 µM (active)	1.87 µM (inactive)	1.71 µM (inactive)	2.47 µM (inactive)	1.96 µM (inactive)	2.36 µM (inactive)	–
CCCCP1(=O)C=CC(Cl)=C(C)C1 (centres undefined)	–	> 100 µM (inactive)	> 100 µM (inactive)	> 100 µM (inactive)	> 100 µM (inactive)	> 100 µM (inactive)	> 100 µM (inactive)	–	> 100 µM (inactive)	–	> 100 µM (inactive)	–	–	> 100 µM (inactive)	> 100 µM (inactive)	> 100 µM (inactive)	> 100 µM (inactive)	> 100 µM (inactive)	–	> 100 µM (inactive)
C=CCN(N=O)C(=O)N(CCC)CCCCC(NC(C)=O)C(=O)NCc1ccccc1 (centres undefined)	48.2 µM (inactive)	33.7 µM (inactive)	> 100 µM (inactive)	> 100 µM (inactive)	–	23.2 µM (inactive)	29.2 µM (inactive)	–	22.5 µM (inactive)	> 100 µM (inactive)	73.6 µM (inactive)	–	26.9 µM (inactive)	38.1 µM (inactive)	> 100 µM (inactive)	> 100 µM (inactive)	> 100 µM (inactive)	> 100 µM (inactive)	–	–
COC(=O)C1CCC(=O)N1C(=O)Cc1ccc(OC)cc1 (centres undefined)	> 100 µM (inactive)	–	> 100 µM (inactive)	> 100 µM (inactive)	> 100 µM (inactive)	> 100 µM (inactive)	> 100 µM (inactive)	–	–	> 100 µM (inactive)	> 100 µM (inactive)	–	–	–	> 100 µM (inactive)	–	> 100 µM (inactive)	–	–	> 100 µM (inactive)
Nc1nc(N)c2c(n1)NC(=O)c1c(c3ccccc3n1Cc1ccc(Cl)cc1)C2	19.7 µM (inactive)	17.7 µM (inactive)	16 µM (inactive)	33.2 µM (inactive)	23.6 µM (inactive)	1.5 µM (inactive)	31.3 µM (inactive)	35.3 µM (inactive)	6.56 µM (inactive)	37.6 µM (inactive)	–	26.6 µM (inactive)	–	15.5 µM (inactive)	45.5 µM (inactive)	23.9 µM (inactive)	49 µM (inactive)	32.4 µM (inactive)	> 10 µM (inactive)	–
c1ccc(/N=C2\S/C(=N\C3CCCCC3)N(C3CCCCC3)\C2=N/c2ccccc2)cc1	> 100 µM (inactive)	> 100 µM (inactive)	> 100 µM (inactive)	–	> 100 µM (inactive)	–	> 100 µM (inactive)	> 100 µM (inactive)	37.8 µM (inactive)	> 100 µM (inactive)	> 100 µM (inactive)	> 100 µM (inactive)	> 100 µM (inactive)	> 100 µM (inactive)	–	–	> 100 µM (inactive)	> 100 µM (inactive)	> 100 µM (inactive)	–
c1ccc(COC2(OCc3ccccc3)CC3OC2C2NN=NC32)cc1 (centres undefined)	44 µM (inactive)	11.3 µM (inactive)	37.7 µM (inactive)	–	–	19.6 µM (inactive)	20.8 µM (inactive)	–	12.5 µM (inactive)	18.1 µM (inactive)	–	–	13.7 µM (inactive)	41.7 µM (inactive)	22.1 µM (inactive)	22.1 µM (inactive)	18.8 µM (inactive)	> 10 µM (inactive)	–	28.7 µM (inactive)
CC1(C)COC(/C=C/C2=NC(C)(C)CO2)=N1	5.89 µM (inactive)	7.59 µM (inactive)	14.4 µM (inactive)	16.9 µM (inactive)	10.6 µM (inactive)	25 µM (inactive)	21.2 µM (inactive)	15.9 µM (inactive)	12.6 µM (inactive)	20.9 µM (inactive)	2.77 µM (inactive)	26.1 µM (inactive)	10 µM (inactive)	16.3 µM (inactive)	24.3 µM (inactive)	22 µM (inactive)	17.6 µM (inactive)	26.5 µM (inactive)	4.44 µM (inactive)	–
COc1ccc(C2C(Cl)C(=O)N2NC(=O)c2ccccc2O)cc1 (centres undefined)	–	> 100 µM (inactive)	> 100 µM (inactive)	> 100 µM (inactive)	> 100 µM (inactive)	> 100 µM (inactive)	> 100 µM (inactive)	–	> 100 µM (inactive)	–	> 100 µM (inactive)	–	> 100 µM (inactive)	> 100 µM (inactive)	> 100 µM (inactive)	> 100 µM (inactive)	> 100 µM (inactive)	> 100 µM (inactive)	> 100 µM (inactive)	–
